In patent US11377632B2, “Production method for bacterial cells” (IDEMITSU KOSAN CO., LTD., priority 2017, dated 2022):

Test system: Bacillus subtilis ITB 105 strain (NITE BP-01727)
Assay: Three-stage liquid culture with streptomycin added; colony count (CFU) and abnormal colony morphology on agar
Format: cell-based
Conditions: for Appearance (%) of abnormal colonies / CFU / Number of abnormal colonies / Number of normal colonies: third stage, 30 hour
Experimental: Using a 500 mL Erlenmeyer flask (with a baffle), 100 mL each of liquid medium containing the components of the medium listed in Table 1 was prepared, and then autoclave sterilization was performed. In order to avoid the Maillard reaction, glucose was separately sterilized and mixed aseptically.
The test sections were set as described in Table 2. According to the conditions for each test section, an aqueous solution of filter-sterilized streptomycin was aseptically added to the medium.
One platinum loop was taken from a colony of Bacillus subtilis ITB 105 strain (NITE BP-01727) grown on a common agar medium and inoculated, and then shake culture was performed at 30° C. and 150 rpm (first stage). Eighteen hours later, 1 mL of each culture solution was aliquoted and transferred to a fresh medium, and then shaking culture was performed in the same manner (second stage). After 24 hours, 1 mL of each culture solution was aliquoted and then transferred to a fresh medium, and then shaking culture was performed in the same manner (third stage). The third-stage culture solution was sampled after 30 hours.
The resulting culture solutions were each diluted 1×10^7 folds with sterile water, and 100 μL of the diluted solution was applied to a common agar medium and then cells were cultured overnight at 37° C. The number of colonies that had appeared was determined to calculate CFU. Colonies that had appeared and clearly differed in colony morphology compared with the parent strain on the basis of the criteria in Table 3 were determined as abnormal colonies and the number of the abnormal appearing colonies was determined and then the proportion thereof in the total number of colonies was calculated. As a result, in the three-stage culture, abnormal appearing colonies accounted for about 5% when no antibiotic was added.

[1] = Test section No. 2: streptomycin 5 ppm in first and second stage, none in third
[2] = Test section No. 3: streptomycin 10 ppm in first and second stage, none in third
[3] = Test section No. 4: streptomycin 15 ppm in first and second stage, none in third
[4] = Test section No. 5: streptomycin 20 ppm in first and second stage, none in third
[5] = Test section No. 6: streptomycin 30 ppm in first and second stage, none in third
[6] = Test section No. 7: streptomycin 30 ppm in first, second and third stage
[7] = streptomycin added in all of the first, second and third stages

[H]/N=C(/N)N[C@H]1[C@H](O)[C@@H](O)[C@H](O[C@@H]2O[C@@H](C)[C@](O)(C=O)[C@H]2O[C@@H]2O[C@@H](CO)[C@H](O)[C@@H](O)[C@@H]2NC)[C@@H](N/C(N)=N\[H])[C@@H]1O [Streptomycin, streptomycin]
Appearance (%) of abnormal colonies [1]: 0.0%
CFU [1]: 8.8e+09 mL⁻¹
Number of abnormal colonies [1]: 0
Number of normal colonies [1]: 88
Appearance (%) of abnormal colonies [2]: 0.0%
CFU [2]: 1.09e+10 mL⁻¹
Number of abnormal colonies [2]: 0
Number of normal colonies [2]: 109
Appearance (%) of abnormal colonies [3]: 0.0%
CFU [3]: 7e+09 mL⁻¹
Number of abnormal colonies [3]: 0
Number of normal colonies [3]: 70
Appearance (%) of abnormal colonies [4]: 0.0%
CFU [4]: 8.2e+09 mL⁻¹
Number of abnormal colonies [4]: 0
Number of normal colonies [4]: 82
Appearance (%) of abnormal colonies [5]: 0.0%
CFU [5]: 6.3e+09 mL⁻¹
Number of abnormal colonies [5]: 0
Number of normal colonies [5]: 63
Appearance (%) of abnormal colonies [6]: 0.0%
CFU [6]: 4.9e+09 mL⁻¹
Number of abnormal colonies [6]: 0
Number of normal colonies [6]: 49
Appearance of abnormal colonies [7]: no abnormal colony appeared
Number of appearing colonies and number of normal appearing colonies [7]: low
Productivity of bacterial cells (streptomycin added in all of the first, second and third stages, compared with Test section Nos. 2 to 6): lower than those of Test section Nos. 2 to 6
Appearance of abnormal colonies (streptomycin added in the first and second stages, none in the third stage): no appearance of abnormal colonies was observed
